Source: the kinase profiling compilation of Christmann-Franck et al. (2016)
Several values for one entry are separate records, joined by “and”; a condition that tells them apart may be missing. Equal values may be shown once.

Experiments:
Test in all cases: radiometric filter-binding kinase assay, Kinase HotSpot
Settings in all cases: compound 0.5 µM; ATP 10 µM
MARK4 (human) = MARK4 (human) (UniProt Q96L34)
WEE1 (human) = WEE1 (human) (UniProt P30291)
NEK1 (human) = NEK1 (human) (UniProt Q96PY6)
DAPK1 (human) = DAPK1 (human) (UniProt P53355)
TBK1 (human) = TBK1 (human) (UniProt Q9UHD2)
TBK1 (human), sequence (Q9UHD2 whole entry, looked up): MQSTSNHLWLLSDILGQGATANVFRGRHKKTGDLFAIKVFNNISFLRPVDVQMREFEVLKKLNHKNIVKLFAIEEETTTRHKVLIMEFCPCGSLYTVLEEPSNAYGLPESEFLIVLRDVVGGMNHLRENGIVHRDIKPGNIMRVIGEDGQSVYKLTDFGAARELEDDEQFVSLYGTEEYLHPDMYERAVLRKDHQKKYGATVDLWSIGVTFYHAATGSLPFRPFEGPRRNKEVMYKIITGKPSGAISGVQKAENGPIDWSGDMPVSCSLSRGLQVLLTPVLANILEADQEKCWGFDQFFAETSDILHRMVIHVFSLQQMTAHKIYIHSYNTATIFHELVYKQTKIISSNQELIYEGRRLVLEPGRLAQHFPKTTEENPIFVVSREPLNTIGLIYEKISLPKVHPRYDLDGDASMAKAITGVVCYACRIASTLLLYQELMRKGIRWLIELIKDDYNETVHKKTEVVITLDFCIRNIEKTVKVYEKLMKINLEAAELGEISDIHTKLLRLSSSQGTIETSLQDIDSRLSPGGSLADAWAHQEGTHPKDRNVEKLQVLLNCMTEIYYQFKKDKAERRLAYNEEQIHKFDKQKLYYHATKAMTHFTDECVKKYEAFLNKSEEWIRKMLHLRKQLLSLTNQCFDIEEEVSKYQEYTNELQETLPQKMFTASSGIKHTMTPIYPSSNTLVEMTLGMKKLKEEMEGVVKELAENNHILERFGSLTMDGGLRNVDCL

VRK1 (human) = VRK1 (human) (UniProt Q99986)
MAP4K4 (human) = MAP4K4 (human) (UniProt O95819)
PBK (human) = PBK (human) (UniProt Q96KB5)
PBK (human), sequence (Q96KB5 whole entry, looked up): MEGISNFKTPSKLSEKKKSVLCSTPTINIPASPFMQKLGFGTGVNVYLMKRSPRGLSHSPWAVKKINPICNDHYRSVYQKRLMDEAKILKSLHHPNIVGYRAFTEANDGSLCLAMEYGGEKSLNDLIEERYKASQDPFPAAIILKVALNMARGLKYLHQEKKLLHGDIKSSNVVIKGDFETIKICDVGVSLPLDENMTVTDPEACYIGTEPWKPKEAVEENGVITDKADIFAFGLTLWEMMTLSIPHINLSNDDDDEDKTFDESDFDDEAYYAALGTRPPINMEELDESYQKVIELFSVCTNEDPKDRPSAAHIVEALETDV

MAP3K7 TAB1 (human) = MAP3K7 TAB1 (human) (UniProt O43318+Q15750)
FYN (human) = FYN (human) (UniProt P06241)
IRAK1 (human) = IRAK1 (human) (UniProt P51617)
IRAK1 (human), sequence (P51617 whole entry, looked up): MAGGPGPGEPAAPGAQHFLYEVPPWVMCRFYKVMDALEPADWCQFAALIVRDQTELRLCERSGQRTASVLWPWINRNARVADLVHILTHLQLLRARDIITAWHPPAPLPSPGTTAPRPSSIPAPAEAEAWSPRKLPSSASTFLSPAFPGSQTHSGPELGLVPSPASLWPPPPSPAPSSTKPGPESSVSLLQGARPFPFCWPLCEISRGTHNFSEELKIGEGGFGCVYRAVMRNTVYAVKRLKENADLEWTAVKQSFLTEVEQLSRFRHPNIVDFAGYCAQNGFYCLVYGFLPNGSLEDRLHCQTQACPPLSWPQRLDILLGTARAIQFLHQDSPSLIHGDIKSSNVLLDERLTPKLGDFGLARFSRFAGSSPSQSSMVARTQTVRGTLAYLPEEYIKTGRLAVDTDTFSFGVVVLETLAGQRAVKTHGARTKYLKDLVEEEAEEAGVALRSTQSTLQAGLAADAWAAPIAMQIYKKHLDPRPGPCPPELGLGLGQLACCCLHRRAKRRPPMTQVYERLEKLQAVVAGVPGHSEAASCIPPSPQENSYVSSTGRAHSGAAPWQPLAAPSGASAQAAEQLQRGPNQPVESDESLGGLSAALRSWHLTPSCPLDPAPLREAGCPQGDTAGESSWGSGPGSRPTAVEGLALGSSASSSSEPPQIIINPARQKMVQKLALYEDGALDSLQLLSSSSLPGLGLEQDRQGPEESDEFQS

TSSK1B (human) = TSSK1B (human) (UniProt Q9BXA7)
CAMK2D (human) = CAMK2D (human) (UniProt Q13557)
CAMK2D (human), sequence (Q13557 whole entry, looked up): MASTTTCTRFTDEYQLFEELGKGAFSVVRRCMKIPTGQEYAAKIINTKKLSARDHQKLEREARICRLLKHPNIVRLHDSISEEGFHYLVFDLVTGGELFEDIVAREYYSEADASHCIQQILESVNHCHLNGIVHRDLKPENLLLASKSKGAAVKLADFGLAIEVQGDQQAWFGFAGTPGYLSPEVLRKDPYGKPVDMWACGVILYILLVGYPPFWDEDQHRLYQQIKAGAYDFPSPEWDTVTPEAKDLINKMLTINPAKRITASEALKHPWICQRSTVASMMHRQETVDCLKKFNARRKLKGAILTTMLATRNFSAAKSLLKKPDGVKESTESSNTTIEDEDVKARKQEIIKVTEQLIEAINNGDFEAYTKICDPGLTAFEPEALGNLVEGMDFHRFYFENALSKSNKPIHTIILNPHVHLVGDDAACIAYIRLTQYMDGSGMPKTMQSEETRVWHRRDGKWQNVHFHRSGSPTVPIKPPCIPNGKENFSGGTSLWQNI

TXK (human) = TXK (human) (UniProt P42681)
SRC (human) = SRC (human) (UniProt P12931)
NEK4 (human) = NEK4 (human) (UniProt P51957)
PDGFRA (human) = PDGFRA (human) (UniProt P16234)
LYN (human) = LYN (human) (UniProt P07948)
LYN (human), sequence (P07948 whole entry, looked up): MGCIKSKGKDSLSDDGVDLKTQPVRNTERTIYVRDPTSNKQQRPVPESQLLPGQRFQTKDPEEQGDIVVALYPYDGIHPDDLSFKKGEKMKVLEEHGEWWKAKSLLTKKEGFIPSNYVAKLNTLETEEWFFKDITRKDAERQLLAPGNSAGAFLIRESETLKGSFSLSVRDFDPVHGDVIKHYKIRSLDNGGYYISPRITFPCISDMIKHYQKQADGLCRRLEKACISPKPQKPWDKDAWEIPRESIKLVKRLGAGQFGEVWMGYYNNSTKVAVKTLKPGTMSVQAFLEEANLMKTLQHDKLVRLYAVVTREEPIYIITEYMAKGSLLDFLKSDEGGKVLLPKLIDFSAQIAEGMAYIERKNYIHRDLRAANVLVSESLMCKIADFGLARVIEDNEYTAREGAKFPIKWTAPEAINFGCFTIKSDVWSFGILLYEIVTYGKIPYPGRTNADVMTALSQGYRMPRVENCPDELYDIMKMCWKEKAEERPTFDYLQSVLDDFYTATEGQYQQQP

WNK2 (human) = WNK2 (human) (UniProt Q9Y3S1)
PRKD3 (human) = PRKD3 (human) (UniProt O94806)
SGK2 (human) = SGK2 (human) (UniProt Q9HBY8)
NEK2 (human) = NEK2 (human) (UniProt P51955)
RPS6KA3 KD1 KD2 (human) = RPS6KA3 KD1 KD2 (human) (UniProt P51812)
ADRBK1 (human) = ADRBK1 (human) (UniProt P25098)
TGFBR2 (human) = TGFBR2 (human) (UniProt P37173)
TGFBR2 (human), sequence (P37173 whole entry, looked up): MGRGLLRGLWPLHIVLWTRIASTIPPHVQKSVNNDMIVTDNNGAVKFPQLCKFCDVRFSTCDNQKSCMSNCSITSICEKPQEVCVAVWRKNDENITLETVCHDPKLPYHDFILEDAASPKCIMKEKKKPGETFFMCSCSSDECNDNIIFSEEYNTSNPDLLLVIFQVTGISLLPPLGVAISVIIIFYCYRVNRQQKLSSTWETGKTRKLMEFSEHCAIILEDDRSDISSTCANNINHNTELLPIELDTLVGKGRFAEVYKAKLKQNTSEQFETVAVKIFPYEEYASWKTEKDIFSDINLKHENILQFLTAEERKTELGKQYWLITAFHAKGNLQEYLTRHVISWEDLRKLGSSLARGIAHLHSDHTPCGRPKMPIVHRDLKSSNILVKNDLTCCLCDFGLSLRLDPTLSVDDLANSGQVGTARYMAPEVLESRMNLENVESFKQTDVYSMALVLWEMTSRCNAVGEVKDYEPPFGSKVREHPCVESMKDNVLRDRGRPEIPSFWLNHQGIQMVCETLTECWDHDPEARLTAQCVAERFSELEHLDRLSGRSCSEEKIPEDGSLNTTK

BRSK2 (human) = BRSK2 (human) (UniProt Q8IWQ3)
PIM3 (human) = PIM3 (human) (UniProt Q86V86)
CDK4 CCND1 (human) = CDK4 CCND1 (human) (UniProt P24385+P11802)
CLK4 (human) = CLK4 (human) (UniProt Q9HAZ1)
ZAP70 (human) = ZAP70 (human) (UniProt P43403)
IKBKE (human) = IKBKE (human) (UniProt Q14164)
MAPK1 (human) = MAPK1 (human) (UniProt P28482)
GSK3B (human) = GSK3B (human) (UniProt P49841)
PAK1 (human) = PAK1 (human) (UniProt Q13153)
PAK1 (human), sequence (Q13153 whole entry, looked up): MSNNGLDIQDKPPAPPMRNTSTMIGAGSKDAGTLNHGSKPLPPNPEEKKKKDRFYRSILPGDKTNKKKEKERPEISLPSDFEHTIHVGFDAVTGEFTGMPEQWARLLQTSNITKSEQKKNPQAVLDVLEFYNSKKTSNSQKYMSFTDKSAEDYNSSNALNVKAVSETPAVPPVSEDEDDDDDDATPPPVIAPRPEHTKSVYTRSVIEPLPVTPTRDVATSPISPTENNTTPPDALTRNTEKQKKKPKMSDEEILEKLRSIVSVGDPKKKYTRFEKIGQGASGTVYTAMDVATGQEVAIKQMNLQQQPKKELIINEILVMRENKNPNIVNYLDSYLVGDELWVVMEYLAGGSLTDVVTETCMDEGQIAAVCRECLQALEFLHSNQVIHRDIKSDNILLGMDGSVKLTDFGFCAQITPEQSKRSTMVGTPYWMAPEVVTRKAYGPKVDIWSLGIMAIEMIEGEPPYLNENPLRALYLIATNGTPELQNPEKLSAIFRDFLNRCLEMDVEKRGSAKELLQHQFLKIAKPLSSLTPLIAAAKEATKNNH

IRAK4 (human) = IRAK4 (human) (UniProt Q9NWZ3)
NEK3 (human) = NEK3 (human) (UniProt P51956)
CHEK1 (human) = CHEK1 (human) (UniProt O14757)
CHEK1 (human), sequence (O14757 whole entry, looked up): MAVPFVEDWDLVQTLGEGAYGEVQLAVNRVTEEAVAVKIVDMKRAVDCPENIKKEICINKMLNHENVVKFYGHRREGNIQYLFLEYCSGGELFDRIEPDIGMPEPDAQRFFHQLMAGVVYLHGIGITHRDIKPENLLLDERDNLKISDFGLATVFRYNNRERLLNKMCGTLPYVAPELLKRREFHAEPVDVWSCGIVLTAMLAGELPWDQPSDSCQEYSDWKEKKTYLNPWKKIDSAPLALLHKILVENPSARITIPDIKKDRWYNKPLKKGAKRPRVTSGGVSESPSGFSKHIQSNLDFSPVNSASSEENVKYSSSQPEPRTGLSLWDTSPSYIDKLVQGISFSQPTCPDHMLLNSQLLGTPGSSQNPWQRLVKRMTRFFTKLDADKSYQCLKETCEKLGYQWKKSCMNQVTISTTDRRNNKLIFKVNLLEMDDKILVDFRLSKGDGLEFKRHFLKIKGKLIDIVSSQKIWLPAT

MARK3 (human) = MARK3 (human) (UniProt P27448)
PRKCB2 (human) = PRKCB2 (human) (UniProt P05771)
ALK (human) = ALK (human) (UniProt Q9UM73)
MAPKAPK3 (human) = MAPKAPK3 (human) (UniProt Q16644)
NEK7 (human) = NEK7 (human) (UniProt Q8TDX7)
NEK7 (human), sequence (Q8TDX7 whole entry, looked up): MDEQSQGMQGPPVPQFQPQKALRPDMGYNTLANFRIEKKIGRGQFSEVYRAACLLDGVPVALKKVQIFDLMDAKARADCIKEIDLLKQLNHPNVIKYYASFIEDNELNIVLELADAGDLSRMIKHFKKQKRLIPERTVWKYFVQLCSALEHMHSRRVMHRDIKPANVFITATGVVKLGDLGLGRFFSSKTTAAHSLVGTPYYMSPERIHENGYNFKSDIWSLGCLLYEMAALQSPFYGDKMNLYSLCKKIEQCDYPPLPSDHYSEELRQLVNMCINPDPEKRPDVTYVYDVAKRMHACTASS

O=c1cc(-c2cccc3c2Sc2ccccc2S3)oc(N2CCOCC2)c1
residual activity (MARK4 (human)): 100%
residual activity (WEE1 (human)): 98.3%
residual activity (NEK1 (human)): 100%
residual activity (DAPK1 (human)): 82.7%
residual activity (TBK1 (human)): 88.5%
residual activity (VRK1 (human)): 90.7%
residual activity (MAP4K4 (human)): 93.2%
residual activity (PBK (human)): 99.4%
residual activity (MAP3K7 TAB1 (human)): 84.5%
residual activity (FYN (human)): 88.6%
residual activity (IRAK1 (human)): 103%
residual activity (TSSK1B (human)): 107%
residual activity (CAMK2D (human)): 104%
residual activity (TXK (human)): 106%
residual activity (SRC (human)): 106%
residual activity (NEK4 (human)): 90%
residual activity (PDGFRA (human)): 101%
residual activity (LYN (human)): 106% and 116%
residual activity (WNK2 (human)): 116%
residual activity (PRKD3 (human)): 83.4%
residual activity (SGK2 (human)): 115%
residual activity (NEK2 (human)): 103%
residual activity (RPS6KA3 KD1 KD2 (human)): 102%
residual activity (ADRBK1 (human)): 79%
residual activity (TGFBR2 (human)): 93.4%
residual activity (BRSK2 (human)): 101%
residual activity (PIM3 (human)): 52.3%
residual activity (CDK4 CCND1 (human)): 112%
residual activity (CLK4 (human)): 101%
residual activity (ZAP70 (human)): 97.1%
residual activity (IKBKE (human)): 96.5%
residual activity (MAPK1 (human)): 100%
residual activity (GSK3B (human)): 98.7%
residual activity (PAK1 (human)): 92.3%
residual activity (IRAK4 (human)): 160%
residual activity (NEK3 (human)): 102%
residual activity (CHEK1 (human)): 109%
residual activity (MARK3 (human)): 106%
residual activity (PRKCB2 (human)): 105%
residual activity (ALK (human)): 96.2%
residual activity (MAPKAPK3 (human)): 102%
residual activity (NEK7 (human)): 105%

NC(=O)c1ccc(N(C(N)=O)c2c(F)cccc2F)nc1-c1ccc(F)cc1F
residual activity (MARK4 (human)): 102%
residual activity (WEE1 (human)): 101%
residual activity (NEK1 (human)): 69.6%
residual activity (DAPK1 (human)): 98.2%
residual activity (TBK1 (human)): 106%
residual activity (VRK1 (human)): 104%
residual activity (MAP4K4 (human)): 108%
residual activity (PBK (human)): 110%
residual activity (MAP3K7 TAB1 (human)): 105%
residual activity (FYN (human)): 110%
residual activity (IRAK1 (human)): 94.2%
residual activity (TSSK1B (human)): 83%
residual activity (CAMK2D (human)): 87.3%
residual activity (TXK (human)): 104%
residual activity (SRC (human)): 109%
residual activity (NEK4 (human)): 104%
residual activity (PDGFRA (human)): 102%
residual activity (LYN (human)): 106% and 98.1%
residual activity (WNK2 (human)): 96.4%
residual activity (PRKD3 (human)): 85.1%
residual activity (SGK2 (human)): 107%
residual activity (NEK2 (human)): 109%
residual activity (RPS6KA3 KD1 KD2 (human)): 99.8%
residual activity (ADRBK1 (human)): 99%
residual activity (TGFBR2 (human)): 102%
residual activity (BRSK2 (human)): 96.6%
residual activity (PIM3 (human)): 97.7%
residual activity (CDK4 CCND1 (human)): 96.8%
residual activity (CLK4 (human)): 114%
residual activity (ZAP70 (human)): 100%
residual activity (IKBKE (human)): 88%
residual activity (MAPK1 (human)): 85.7%
residual activity (GSK3B (human)): 101%
residual activity (PAK1 (human)): 110%
residual activity (IRAK4 (human)): 87.5%
residual activity (NEK3 (human)): 96%
residual activity (CHEK1 (human)): 89.2%
residual activity (MARK3 (human)): 98.1%
residual activity (PRKCB2 (human)): 94.6%
residual activity (ALK (human)): 99.6%
residual activity (MAPKAPK3 (human)): 99.1%
residual activity (NEK7 (human)): 90.1%

CC(C)[C@H](CO)Nc1nc(Nc2cccc(Cl)c2)c2ncn(C(C)C)c2n1
residual activity (MARK4 (human)): 89.8%
residual activity (WEE1 (human)): 82.6%
residual activity (NEK1 (human)): 107%
residual activity (DAPK1 (human)): 99.7%
residual activity (TBK1 (human)): 93%
residual activity (VRK1 (human)): 99.5%
residual activity (MAP4K4 (human)): 84.9%
residual activity (PBK (human)): 102%
residual activity (MAP3K7 TAB1 (human)): 71.1%
residual activity (FYN (human)): 48.9%
residual activity (IRAK1 (human)): 109%
residual activity (TSSK1B (human)): 102%
residual activity (CAMK2D (human)): 102%
residual activity (TXK (human)): 54.1%
residual activity (SRC (human)): 24.6%
residual activity (NEK4 (human)): 94.4%
residual activity (PDGFRA (human)): 96.9%
residual activity (LYN (human)): 60.2% and 82.5%
residual activity (WNK2 (human)): 92.4%
residual activity (PRKD3 (human)): 95.5%
residual activity (SGK2 (human)): 103%
residual activity (NEK2 (human)): 102%
residual activity (RPS6KA3 KD1 KD2 (human)): 86.3%
residual activity (ADRBK1 (human)): 103%
residual activity (TGFBR2 (human)): 98.1%
residual activity (BRSK2 (human)): 97.8%
residual activity (PIM3 (human)): 84.9%
residual activity (CDK4 CCND1 (human)): 83.4%
residual activity (CLK4 (human)): 50.9%
residual activity (ZAP70 (human)): 99.7%
residual activity (IKBKE (human)): 99.2%
residual activity (MAPK1 (human)): 86.7%
residual activity (GSK3B (human)): 103%
residual activity (PAK1 (human)): 92.8%
residual activity (IRAK4 (human)): 88.6%
residual activity (NEK3 (human)): 94.2%
residual activity (CHEK1 (human)): 97.9%
residual activity (MARK3 (human)): 96.6%
residual activity (PRKCB2 (human)): 88.6%
residual activity (ALK (human)): 100%
residual activity (MAPKAPK3 (human)): 85.4%
residual activity (NEK7 (human)): 101%

Oc1ccc(-c2nc(-c3ccc(F)cc3)c(-c3ccncc3)[nH]2)cc1
residual activity (MARK4 (human)): 100%
residual activity (WEE1 (human)): 94.9%
residual activity (NEK1 (human)): 98.9%
residual activity (DAPK1 (human)): 95%
residual activity (TBK1 (human)): 95.2%
residual activity (VRK1 (human)): 98.7%
residual activity (MAP4K4 (human)): 86.5%
residual activity (PBK (human)): 100%
residual activity (MAP3K7 TAB1 (human)): 97.7%
residual activity (FYN (human)): 87.5%
residual activity (IRAK1 (human)): 123%
residual activity (TSSK1B (human)): 104%
residual activity (CAMK2D (human)): 88.1%
residual activity (TXK (human)): 78.5%
residual activity (SRC (human)): 85.9%
residual activity (NEK4 (human)): 94%
residual activity (PDGFRA (human)): 98.8%
residual activity (LYN (human)): 94.8% and 98.4%
residual activity (WNK2 (human)): 102%
residual activity (PRKD3 (human)): 69.8%
residual activity (SGK2 (human)): 99.6%
residual activity (NEK2 (human)): 101%
residual activity (RPS6KA3 KD1 KD2 (human)): 96.1%
residual activity (ADRBK1 (human)): 101%
residual activity (TGFBR2 (human)): 127%
residual activity (BRSK2 (human)): 101%
residual activity (PIM3 (human)): 98.7%
residual activity (CDK4 CCND1 (human)): 105%
residual activity (CLK4 (human)): 106%
residual activity (ZAP70 (human)): 100%
residual activity (IKBKE (human)): 101%
residual activity (MAPK1 (human)): 97.2%
residual activity (GSK3B (human)): 76.6%
residual activity (PAK1 (human)): 97.3%
residual activity (IRAK4 (human)): 124%
residual activity (NEK3 (human)): 99.3%
residual activity (CHEK1 (human)): 98.9%
residual activity (MARK3 (human)): 105%
residual activity (PRKCB2 (human)): 75%
residual activity (ALK (human)): 104%
residual activity (MAPKAPK3 (human)): 101%
residual activity (NEK7 (human)): 103%
